Experimental findings from patent publication US7582655B2, “Antineoplastic compounds” (University of Saskatchewan, priority 2005, dated 2009) are described below.

Data set [1] concerns human promyelocytic leukemia HL-60. The experiment in a line: Cytotoxicity CC50, trypan blue exclusion, HL-60. How it is done: (§1) In addition, the compounds were evaluated against human squamous cell carcinomas (HSC-2 and HSC-4) and human promyelocytic leukemia neoplasms (HL-60) and compared with normal cells, i.e. human gingival fibroblasts (HGF), human pulp cells (HPC) and human periodontal ligament fibroblasts (HPLF).
(§2) MTT stands for 3-(4,5-dimethylthiazol-2-yl)-2,5-diphenyltetrazolium bromide). The cells were incubated with varying concentrations of the compounds along with untreated cells for 24 h and the absorbance at 540 nm measured. In the case of the HL-60 assay, the trypan blue exclusion method was followed and cell viability was determined using a haemocytometer. The CC50 values were obtained from dose-response curves (Sakagami, H.; Satoh, K.; Ohata, H.; Takahashi, H.; Yoshida, H.; Iida, M.; Kuribayashi, N.; Sakagami, T.; Momose, K.; Takeda, M. Anticancer Res. 1996, 16, 2635-2644). The general methods used in culturing the cells employed in these cytotoxicity experiments have been described previously (Kawase, M.; Sakagami, H.; Motohashi, N.; Hauer, H.; Chatterjee, S. S.; Spengler, G.; Vigyikanne, A. V.; Molnár, A.; Molnár, J. In Vivo 2005, 19, 705-712; and Takeuchi, R.; Hoshijima, H.; Onuki, N.; Nagasaka, H.; Chowdhury, S. A.; Kawase, M.; Sakagami, H. Anticancer Res. 2005, 25, 4037-4042). In brief, the malignant cells were obtained from Professor Nagumo, Showa University, Japan. The HGF, HPC and HPLF cells were prepared from human periodontal tissue after obtaining informed consent according to the guidelines of Meikai University Ethics Committee, Japan (No. 0206). Since normal cells have a short lifespan, cells at the 3-7 population doubling time were used. With the exception of the HL-60 neoplasm, the cells were cultured in DMEM containing heat-inactivated FBS (10%) at 37° C. in a humidified carbon dioxide atmosphere and subcultured by trypsinization. The HL-60 cells were cultured in a similar fashion except that RPMI 1640 media was employed.

Data set [2] relates to human pulp cells (HPC). The experiment in a line: Cytotoxicity CC50, MTT assay, normal HPC cells. How it is done: as §1, §2
The test system of data set [3] is human squamous cell carcinomas HSC-2. Description: Cytotoxicity CC50, MTT assay, HSC-2. How it is done: as §1, §2
Data set [4] has as its system human gingival fibroblasts (HGF). The experiment in a line: Cytotoxicity CC50, MTT assay, normal HGF cells. How it is done: as §1, §2
For data set [5], the system named is human periodontal ligament fibroblasts (HPLF). The experiment in a line: Cytotoxicity CC50, MTT assay, normal HPLF cells. How it is done: as §1, §2
For data set [6], the system named is human squamous cell carcinomas HSC-4. The experiment in a line: Cytotoxicity CC50, MTT assay, HSC-4. How it is done:
as §1, §2

For data set [7], the system named is murine L-5178 lymphoma cells transfected with the human MDR1 gene. The experiment in a line: MDR reversal, rhodamine 123 fluorescence activity ratio. The settings on record: FAR >1 indicates MDR reversal; for FAR value 4 μg/ml: compound 4 μg/ml; for FAR value 40 μg/ml: compound 40 μg/ml. How it is done:
A solution of the test compound (2 mg/ml, 10 μl) in dimethylsulfoxide was added to aliquots of the cell suspension and incubated at room temperature for 10 minutes. […] The cells were washed twice and resuspended in PBS (pH 7.4) after which the fluorescence was measured using a Beckton Dickinson FACScan instrument. The fluorescence of the cells was measured in treated MDR cells (F1), untreated MDR cells (F2), treated parental cells (F3) […] were obtained from the following equation, viz (F1/F2)/(F3/F4).

Data set [8] concerns HSC-2, HSC-4 and HL-60 malignant cells. Description: Average CC50 for malignant cells. How it is done:
as §1, §2

Where [9] appears, read: read-out: CC50(μM) HL-60, 24 h, trypan blue exclusion, average of two determinations.
The mark [10] stands for this setting: read-out: CC50(μM) HPC, normal cells, 24 h, MTT.
Where [11] appears, read: read-out: CC50(μM) HSC-2, 24 h, MTT, average of two determinations.
Setting [12] is: read-out: CC50(μM) HGF, normal cells, 24 h, MTT.
Setting [13] is: read-out: CC50(μM) HPLF, normal cells, 24 h, MTT.
Setting [14] is: read-out: CC50(μM) HSC-4, 24 h, MTT, average of two determinations.
Where [15] appears, read: average CC50 for HSC-2, HSC-4 and HL-60 malignant cells.

Read-outs that look alike come from different tables or passages of the source.

In the case of “1-[4-{2-(4-Morpholinyl)ethoxy}phenylcarbonyl]-3,5-bis(4-nitrophenylmethylene)-4-piperidone hydrochloride hemihydrate [Compound 6c]”, the CC50 in data set [1] (setting [9]) was 0.35 µM; in data set [2] (setting [10]), 8.2 µM; in data set [3] (setting [11]), 0.76 µM; in data set [4] (setting [12]), 12 µM; in data set [5] (setting [13]) it was 9.3 µM; in data set [6] (setting [14]), 0.74 µM.

Regarding `CC[N+](C)(CC)CCOc1ccc(C(=O)N2CC(=Cc3ccc([N+](=O)[O-])cc3)C(=O)C(=Cc3ccc([N+](=O)[O-])cc3)C2)cc1.[I-]` [Compound 7c, 1-[4-(2-Diethylaminoethoxy)phenylcarbonyl]-3,5-bis(4-nitrophenylmethylene)-4-piperidone methoiodide], in data set [7], the “FAR value 4 μg/ml” value is listed as 1.03. Also, the “FAR value 40 μg/ml” value in data set [7] came to 1.22. Besides, the CC50 came out at 29 µM in data set [1]; 130 µM in data set [2]; 67 µM in data set [3]; 93 µM in data set [4]; 13 µM in data set [5]; 61 µM in data set [6]. In addition, the “CC50(μM) ave” value in data set [8] worked out at 52 µM.

Take `Cl.Cl.O.O.O.O=C1C(=Cc2ccc([N+](=O)[O-])cc2)CN(C(=O)c2ccc(OCCN3CCCCC3)cc2)CC1=Cc1ccc([N+](=O)[O-])cc1.O=C1C(=Cc2ccc([N+](=O)[O-])cc2)CN(C(=O)c2ccc(OCCN3CCCCC3)cc2)CC1=Cc1ccc([N+](=O)[O-])cc1` [Compound 5c, 3,5-bis(4-Nitrophenylmethylene)-1-[4-{2-(1-piperidinyl)ethoxy}phenylcarbonyl]-4-piperidone hydrochloride 1.5 hydrate]: the “FAR value 4 μg/ml” value in data set [7] is 145. In addition, in data set [7], the “FAR value 40 μg/ml” value is 51.5. The CC50 in data set [1] turned out to be 0.29 µM; in data set [2] it was 3.9 µM; in data set [3], 0.86 µM; in data set [4], 8 µM; in data set [5] it was 4.9 µM; in data set [6], 0.9 µM.

Consider `Cc1ccc(C=C2CN(C(=O)c3ccc(OCCN4CCCCC4)cc3)CC(=Cc3ccc(C)cc3)C2=O)cc1.Cc1ccc(C=C2CN(C(=O)c3ccc(OCCN4CCCCC4)cc3)CC(=Cc3ccc(C)cc3)C2=O)cc1.Cl.Cl.O` [Compound 5d], for which, in data set [7], the “FAR value 4 μg/ml” value is given as 179 and the “FAR value 40 μg/ml” value was found to be 146. Besides, the “CC50(μM) ave” value in data set [8] amounted to 3.1 µM.

Take `Cl.O=C1C(=Cc2ccc(Cl)cc2)CN(C(=O)c2ccc(OCCN3CCOCC3)cc2)CC1=Cc1ccc(Cl)cc1` [Compound 6b]: in data set [7], the “FAR value 4 μg/ml” value amounted to 76.0 and the “FAR value 40 μg/ml” value was 6.88. Moreover, the “CC50(μM) ave” value in data set [8] was 42 µM.

As to “1-[4-(2-Dimethylaminoethoxy)phenylcarbonyl]-3,5-bis(4-nitrophenylmethylene)-4-piperidone hydrochloride hemihydrate [Compound 3c]”, the CC50 is 0.31 µM in data set [1] (setting [9]); 5.2 µM in data set [2] (setting [10]); 0.93 µM in data set [3] (setting [11]); 7 µM in data set [4] (setting [12]); 5.9 µM in data set [5] (setting [13]); 0.71 µM in data set [6] (setting [14]).

On to “1-[4-{2-(1-Piperidinyl)ethoxy}phenylcarbonyl]-3,5-bis(phenylmethylene)-4-piperidone hydrochloride hemihydrate [Compound 5a]”, for which the CC50 was 1.4 µM in data set [1] (setting [9]); 12 µM in data set [2] (setting [10]); 3 µM in data set [3] (setting [11]); 4.6 µM in data set [4] (setting [12]); 7.4 µM in data set [5] (setting [13]); 2.5 µM in data set [6] (setting [14]). In data set [8] (setting [15]), the “CC50(μM) ave” value stood at 2.3 µM.

For “[4-(2-Dimethylaminoethoxy)phenylcarbonyl]-3,5-bis(phenylmethylene)-4-piperidone hydrochloride [Compound 3a]”, in data set [7], the “FAR value 4 μg/ml” value worked out at 45.5. Besides, the “FAR value 40 μg/ml” value in data set [7] is given as 51.6. For the same compound, the CC50 in data set [1] was 1 µM; in data set [3] (setting [11]) it was 3.8 µM; in data set [5], 8.9 µM; in data set [6] (setting [14]) it was 2.1 µM. For the same compound, the “CC50(μM) ave” value in data set [8] (setting [15]) worked out at 2.3 µM.
